Laboratory results: publication PMC2361324, “Phase 1 trial of the antiangiogenic peptide ATN-161 (Ac-PHSCN-NH2), a beta integrin antagonist, in patients with solid tumours” (British Journal of Cancer, 2006)

How the values were obtained:
[1] = system: DU145 prostate cancer cell line; settings: in vitro, human DU145 prostate cancer cell line; ref Livant et al, 2000b; cited from earlier work
Excerpt: (§1) In vitro, ATN-161 inhibited PHSRN-induced basement membrane invasion of human (DU145) and rat (MLL) prostate cancer cell lines ([Livant et al, 2000b]).

[2] = system: MLL prostate cancer cell line; settings: in vitro, rat MLL prostate cancer cell line; ref Livant et al, 2000b; cited from earlier work
Excerpt: as §1

[3] = animal studies, preclinical; ref not given; cited from earlier work
[4] = Toxicity / adverse events in phase 1 trial (NCI CTC v2.0); type: in vivo, human; settings: for Number of patients with ATN-161-associated adverse events: possible, probable or definite relationship
Procedure: ATN-161 was administered as a 10-min infusion, three times per week. Sequential cohorts of three patients were enrolled to eight different dose levels (0.1, 0.25, 0.5, 1.0, 2.0, 4.0, 8.0 and 16.0 mg kg^−1). All patients in a given dose level were evaluated for at least 28 days before patients could be treated at the next higher dose level. Patients receiving therapy for <1 cycle (4 weeks) were to be replaced unless they had experienced a DLT. Toxicity was evaluated according to the NCI Common Terminology Criteria (CTC) Version 2.0. Dose-limiting toxicities were defined as any of the following treatment-related events occurring during the first cycle of therapy: Grade 4 neutropenia or febrile neutropenia, any other Grade 3 or greater nonhaematologic toxicity, or any toxicity requiring ATN-161 to be held for more than 1 week (i.e., three consecutive missed doses). In the event of DLT, dosing was to be held until recovery to at least Grade 1 toxicity and a new dosing cycle for that patient was to be initiated at the investigator's discretion at 50% of the previous dose. […] In the event of Grade 2 toxicity involving vital organs (hepatic, pulmonary, renal, neurologic, gastrointestinal or cardiotoxicity), the dose of ATN-161 was to be held until recovery to Grade 0–1 before a new cycle was initiated at 100% dosing. If the Grade 2 toxicity recurred, dosing was to be held until recovery to Grade 0–1 and the next cycle would resume at 50%. Occurrence of DLT at a given dose level would require further enrolment of up to six patients at that dose level to determine if the MTD had been exceeded. The MTD was defined as one dose level below which ⩾2/6 patients experienced a DLT. Treatment could continue until progressive disease, or one of the following: unacceptable toxicity, intercurrent illness, patient declined further treatment, or physician decision in view of a patient's other medical conditions.
During treatment, patients were evaluated monthly with physical examinations including toxicity assessment using the CTC, ECOG PS, serum chemistry, haematology and coagulation testing. Tumour burden was reassessed every two cycles (8 weeks) by physical exam or radiological methods as appropriate using RECIST ([Therasse et al, 2000]).
No inferential analyses were performed. Data are presented in a descriptive fashion. Treatment-emergent adverse events were translated from investigator terms to MedDRA terminology and summarised within and across dose levels for all patients who received at least one dose of ATN-161. Treatment administration is described for all patients, including drug/dose administration, number of cycles, dose modifications or delays and duration of therapy.

[5] = system: MLL tumours; settings: Copenhagen rats, ref Livant et al, 2000b, cited from earlier work
[6] = Plasma pharmacokinetics in phase 1 trial; settings: human, iv; for Vd: patients, Day 1, HPLC-MS/MS, noncompartmental, cohort mean
Procedure: Blood samples for PK analysis were collected in EDTA-coated tubes on Day 1 for all patients preinfusion, at the end of infusion, and at 5, 10, 15, 30, 45, 60, 90, 120, 150, 180, 240, 400, 460 and 520 min after infusion. Samples were immediately centrifuged, and the plasma was separated and stored at −20°C prior to analysis.
Pharmacokinetic data were modelled using a noncompartmental approach to estimate individual subject values for the following parameters: maximum observed concentration (Cmax), time of the maximum observed concentration (Tmax), volume of distribution at steady state (VSS), terminal elimination half-life (t1/2), total systemic clearance (CL), area under the plasma concentration-time curve (AUC), and CLr. For these parameters the mean and s.d. coefficient of variation were calculated.
Descriptive PKs parameters were determined by standard model independent methods for infusion administration ([Perrier and Gibaldi, 1982]) from plasma concentrations in each individual patient. Plasma and urine concentrations were rounded to the nearest [drawing 1] ng ml^−1 before the calculations. Plasma samples with concentrations below the quantifiable limit of 50.0 ng ml^−1 (BQL) were assigned values of zero for generation of mean and s.d. plasma concentrations. For PKs calculations, BQL was treated as zero up to the first quantifiable plasma concentration and then treated as an empty value thereafter. Urine samples reported as BQL (⩽50.0 ng ml^−1) were treated as zero for all calculations. Actual patient blood collection sampling times relative to the start of infusion were used for PKs calculations; however, scheduled collection times were used for urinary excretion data and graphical presentations of all data.

[7] = system: integrin beta subunits; settings: ref Donate et al, 2003; cited from earlier work
Excerpt: (§2) ATN-161 is a noncompetitive inhibitor of the fibronectin PHSRN sequence, in which a cysteine residue has been substituted for arginine along with peptide acetylation and amidation in order to yield a product with acceptable pharmaceutical properties (Ac-PHSCN-NH2). […] Thus, ATN-16 ...

[8] = system: integrin-dependent adhesion; settings: ref Plunkett and Mazar, 2002, Plunkett et al; cited from earlier work
Excerpt: as §2

[9] = system: MLL cells; settings: attempts to show induction; ref Livant et al, 2000b; cited from earlier work
[10] = dose level 0.5 mg kg^−1, ATN-161-associated, any course
[11] = dose level 1.0 mg kg^−1, ATN-161-associated, any course
[12] = dose level 2.0 mg kg^−1, ATN-161-associated, any course
[13] = dose level 4.0 mg kg^−1, ATN-161-associated, any course

Ac-PHSCN-NH2 [ATN-161, Ac-PHSCN-NH2]
PHSRN-induced basement membrane invasion [1]: inhibited
PHSRN-induced basement membrane invasion [2]: inhibited
Immunogenicity [3]: not immunogenic
Number of patients with Muscle cramps [4, 10]: 1
Number of patients with Sweating increased [4, 10]: 1
Number of patients with ATN-161-associated adverse events ([4]; dose level 0.5 mg kg^−1, any course): 1
Number of patients with Cellulitis [4, 11]: 1
Number of patients with Dry mouth [4, 11]: 1
Number of patients with Pain in limb [4, 11]: 1
Number of patients with Paresthesia [4, 11]: 1
Number of patients with Phlebitis not otherwise specified (NOS) [4, 11]: 1
Number of patients with ATN-161-associated adverse events ([4]; dose level 1.0 mg kg^−1, any course): 1
Number of patients with Anemia NOS [4, 12]: 1
Number of patients with Hypotension NOS [4, 12]: 1
Number of patients with Oral candidiasis [4, 12]: 1
Number of patients with ATN-161-associated adverse events ([4]; dose level 2.0 mg kg^−1, any course): 2
Number of patients with Constipation [4, 13]: 1
Number of patients with Fatigue [4, 13]: 1
Number of patients with Nausea [4, 13]: 2
Number of patients with ATN-161-associated adverse events ([4]; dose level 4.0 mg kg^−1, any course): 2
Number of patients with Nausea ([4]; dose level 8.0 mg kg^−1, ATN-161-associated, any course): 1
Number of patients with ATN-161-associated adverse events ([4]; dose level 8.0 mg kg^−1, any course): 1
Number of patients with Hypotension NOS ([4]; dose level 16.0 mg kg^−1, ATN-161-associated, any course): 1
Number of patients with ATN-161-associated adverse events ([4]; dose level 16.0 mg kg^−1, any course): 1
Dose-limiting toxicities (DLTs) ([4]; patients, 0.1-16 mg kg^−1 thrice weekly i.v., 26 patients): no DLTs occurred
MTD (maximum tolerated dose) ([4]; patients, 10-min i.v. infusion three times per week, not reached, 16 mg kg^−1 designated maximum administered dose): > 16 mg/kg
Growth of primary MLL tumours ([5]; systemic 5 mg kg^−1, five injections over 16 days): markedly reduced
Ability of MLL tumour cells to metastasise [5]: inhibited
AUC(0-t) ([6]; 0.25 mg/kg): 3420 ng·h/mL
Cmax ([6]; 0.25 mg/kg): 1120 ng/mL
MRT ([6]; 0.25 mg/kg): 5.5 h
clearance ([6]; 0.25 mg/kg): 1.33 mL/min/kg
half-life ([6]; 0.25 mg/kg): 4.4 h
Vd ([6]; 0.25 mg/kg, Vd (volume of distribution), 0.25 mg kg^−1 10-min i.v. infusion): 0.48 L/kg
Vd ([6]; 0.25 mg/kg, Vss (volume of distribution at steady state), 0.25 mg kg^−1 10-min i.v. infusion): 0.33 L/kg
AUC(0-t) ([6]; 0.5 mg/kg): 3610 ng·h/mL
Cmax ([6]; 0.5 mg/kg): 5790 ng/mL
MRT ([6]; 0.5 mg/kg): 3.3 h
clearance ([6]; 0.5 mg/kg): 2.83 mL/min/kg
half-life ([6]; 0.5 mg/kg): 3.2 h
Vd ([6]; 0.5 mg/kg, Vd (volume of distribution), 0.5 mg kg^−1 10-min i.v. infusion): 0.87 L/kg
Vd ([6]; 0.5 mg/kg, Vss (volume of distribution at steady state), 0.5 mg kg^−1 10-min i.v. infusion): 0.47 L/kg
AUC(0-t) ([6]; 1 mg/kg): 1450 ng·h/mL
Cmax ([6]; 1 mg/kg): 3800 ng/mL
MRT ([6]; 1 mg/kg): 3.8 h
clearance ([6]; 1 mg/kg): 10.2 mL/min/kg
half-life ([6]; 1 mg/kg): 3.9 h
Vd ([6]; 1 mg/kg, Vd (volume of distribution), 1 mg kg^−1 10-min i.v. infusion): 3.38 L/kg
Vd ([6]; 1 mg/kg, Vss (volume of distribution at steady state), 1 mg kg^−1 10-min i.v. infusion): 2.3 L/kg
AUC(0-t) ([6]; 2 mg/kg): 3320 ng·h/mL
Cmax ([6]; 2 mg/kg): 15700 ng/mL
MRT ([6]; 2 mg/kg): 2.5 h
clearance ([6]; 2 mg/kg): 11.5 mL/min/kg
half-life ([6]; 2 mg/kg): 3.5 h
Vd ([6]; 2 mg/kg, Vd (volume of distribution), 2 mg kg^−1 10-min i.v. infusion): 3.38 L/kg
Vd ([6]; 2 mg/kg, Vss (volume of distribution at steady state), 2 mg kg^−1 10-min i.v. infusion): 1.93 L/kg
AUC(0-t) ([6]; 4 mg/kg): 3710 ng·h/mL
Cmax ([6]; 4 mg/kg): 5480 ng/mL
MRT ([6]; 4 mg/kg): 4.8 h
clearance ([6]; 4 mg/kg): 14.5 mL/min/kg
half-life ([6]; 4 mg/kg): 4.3 h
Vd ([6]; 4 mg/kg, Vd (volume of distribution), 4 mg kg^−1 10-min i.v. infusion): 5.59 L/kg
Vd ([6]; 4 mg/kg, Vss (volume of distribution at steady state), 4 mg kg^−1 10-min i.v. infusion): 3.82 L/kg
AUC(0-t) ([6]; 8 mg/kg): 34200 ng·h/mL
Cmax ([6]; 8 mg/kg): 34400 ng/mL
MRT ([6]; 8 mg/kg): 3.4 h
clearance ([6]; 8 mg/kg): 7 mL/min/kg
half-life ([6]; 8 mg/kg): 3.3 h
Vd ([6]; 8 mg/kg, Vd (volume of distribution), 8 mg kg^−1 10-min i.v. infusion): 2.14 L/kg
Vd ([6]; 8 mg/kg, Vss (volume of distribution at steady state), 8 mg kg^−1 10-min i.v. infusion): 1.32 L/kg
AUC(0-t) ([6]; 16 mg/kg): 54900 ng·h/mL
Cmax ([6]; 16 mg/kg): 72700 ng/mL
MRT ([6]; 16 mg/kg): 5.3 h
clearance ([6]; 16 mg/kg): 5.83 mL/min/kg
half-life ([6]; 16 mg/kg): 5 h
Vd ([6]; 16 mg/kg, Vd (volume of distribution), 16 mg kg^−1 10-min i.v. infusion): 2.36 L/kg
Vd ([6]; 16 mg/kg, Vss (volume of distribution at steady state), 16 mg kg^−1 10-min i.v. infusion): 1.61 L/kg
Binding to integrin subunits [7]: binds exclusively to integrin beta subunits
Block of integrin-dependent adhesion [8]: does not block
Induction of apoptosis in MLL cells [9]: unsuccessful
